These compounds were tested against human GluN1/GluN2B NMDA receptors (Homo sapiens, UniProt Q05586+Q13224) (assay: Cell-based calcium flux (FLIPR) assay on cloned human NR1/NR2B ion channels expressed in mammalian cells). Details: standard assay; glutamate at ~EC80; FLIPR calcium flux.
Procedure, shortened: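 Calcium influx followed by FLIPR fluorescence after 5 min compound exposure and a further 5 min co-agonist challenge: 10 μM glycine with glutamate at ~EC80 (standard) or EC40 (HTS).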

human GluN1/GluN2B NMDA receptors, sequence (Q13224 27-1484, other chains not shown): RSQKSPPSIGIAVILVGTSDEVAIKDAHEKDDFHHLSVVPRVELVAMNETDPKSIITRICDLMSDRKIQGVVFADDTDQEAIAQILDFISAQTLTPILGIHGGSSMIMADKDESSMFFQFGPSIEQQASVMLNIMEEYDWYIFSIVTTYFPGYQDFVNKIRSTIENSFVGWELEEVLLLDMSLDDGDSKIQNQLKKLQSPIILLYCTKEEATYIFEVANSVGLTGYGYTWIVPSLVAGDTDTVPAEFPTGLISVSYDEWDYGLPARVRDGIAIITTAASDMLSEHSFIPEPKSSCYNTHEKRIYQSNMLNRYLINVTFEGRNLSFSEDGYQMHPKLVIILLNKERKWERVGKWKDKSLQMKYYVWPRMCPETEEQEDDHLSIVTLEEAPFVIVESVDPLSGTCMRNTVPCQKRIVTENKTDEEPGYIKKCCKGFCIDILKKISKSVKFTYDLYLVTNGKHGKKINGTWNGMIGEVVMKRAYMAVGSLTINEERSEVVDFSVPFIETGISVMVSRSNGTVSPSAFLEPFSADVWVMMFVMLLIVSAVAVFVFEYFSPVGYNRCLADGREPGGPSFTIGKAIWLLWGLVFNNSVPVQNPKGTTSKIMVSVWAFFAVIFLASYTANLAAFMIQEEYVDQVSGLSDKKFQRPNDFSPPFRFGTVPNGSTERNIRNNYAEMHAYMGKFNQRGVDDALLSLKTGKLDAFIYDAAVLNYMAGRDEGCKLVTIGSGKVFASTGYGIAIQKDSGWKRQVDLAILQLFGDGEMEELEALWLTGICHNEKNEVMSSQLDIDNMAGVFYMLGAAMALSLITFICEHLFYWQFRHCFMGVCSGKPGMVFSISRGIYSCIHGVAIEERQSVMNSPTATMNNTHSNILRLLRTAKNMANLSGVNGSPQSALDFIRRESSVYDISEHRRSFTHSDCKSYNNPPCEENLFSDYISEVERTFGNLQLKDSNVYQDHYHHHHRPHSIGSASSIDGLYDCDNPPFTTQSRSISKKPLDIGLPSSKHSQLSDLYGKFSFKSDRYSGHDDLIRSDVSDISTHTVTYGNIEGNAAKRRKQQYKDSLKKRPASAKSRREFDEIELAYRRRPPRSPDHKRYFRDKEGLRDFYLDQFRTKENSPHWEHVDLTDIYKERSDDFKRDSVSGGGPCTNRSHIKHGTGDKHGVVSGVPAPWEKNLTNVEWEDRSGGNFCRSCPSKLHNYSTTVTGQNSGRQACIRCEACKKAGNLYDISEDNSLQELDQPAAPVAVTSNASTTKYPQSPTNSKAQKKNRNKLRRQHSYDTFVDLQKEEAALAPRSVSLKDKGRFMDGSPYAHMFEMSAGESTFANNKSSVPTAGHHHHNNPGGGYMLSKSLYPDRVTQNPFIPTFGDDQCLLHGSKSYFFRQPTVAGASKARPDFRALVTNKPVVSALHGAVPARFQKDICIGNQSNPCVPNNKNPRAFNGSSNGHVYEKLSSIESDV

Structure (SMILES)	IC50 [µM]
FC1CN(c2cnc(OCc3cn(-c4ccc(Cl)c(OC(F)F)c4)nn3)nc2)C1 [Example 392, 2-((1-(4-Chloro-3-(difluoromethoxy)phenyl)-1H-1,2,3-triazol-4-yl)methoxy)-5-(3-fluoroazetidin-1-yl)pyrimidine]	0.017
FC(F)Oc1cc(-n2cc(COc3ncc(N4CC(F)(F)C4)cn3)nn2)ccc1Cl [Example 393, 2-((1-(4-Chloro-3-(difluoromethoxy)phenyl)-1H-1,2,3-triazol-4-yl)methoxy)-5-(3,3-difluoroazetidin-1-yl)pyrimidine]	0.037
Fc1cccc(OCc2cn(-c3ccc(Cl)c(OC(F)F)c3)nn2)n1 [Example 394, 2-[[1-[4-Chloro-3-(difluoromethoxy)phenyl]triazol-4-yl]methoxy]-6-fluoro-pyridine]	0.437
Fc1ccc(-n2cc(COc3cccc(C(F)(F)F)n3)nn2)cc1OC(F)F [Example 395, 2-[[1-[3-(Difluoromethoxy)-4-fluoro-phenyl]triazol-4-yl]methoxy]-6-(trifluoromethyl)pyridine]	0.919
Cc1cnc(OCc2cn(-c3ccc(F)c(OC(F)F)c3)nn2)cn1 [Example 396, 2-[[1-[3-(Difluoromethoxy)-4-fluoro-phenyl]triazol-4-yl]methoxy]-5-methyl-pyrazine]	0.647
Fc1ccc(-n2cc(COc3cnc(-c4cccs4)cn3)nn2)cc1OC(F)F [Example 397, 2-[[1-[3-(Difluoromethoxy)-4-fluoro-phenyl]triazol-4-yl]methoxy]-5-(2-thienyl)pyrazine]	10.7
COCc1ccnc(OCc2cn(-c3ccc(F)c(C(F)F)c3)nn2)n1 [Example 399, 2-[[1-[3-(Difluoromethyl)-4-fluoro-phenyl]triazol-4-yl]methoxy]-4-(methoxymethyl)pyrimidine]	0.023
OCc1ccnc(OCc2cn(-c3ccc(F)c(C(F)F)c3)nn2)n1 [Example 400, [2-[[1-[3-(Difluoromethyl)-4-fluoro-phenyl]triazol-4-yl]methoxy]pyrimidin-4-yl]methanol]	0.036
CC(C)(O)c1cnc(OCc2cn(-c3ccc(F)c(C(F)F)c3)nn2)nc1 [Example 401, 2-[2-[[1-[3-(Difluoromethyl)-4-fluoro-phenyl]triazol-4-yl]methoxy]pyrimidin-5-yl]propan-2-ol]	0.017
Fc1ccc(-n2cc(COc3nccc(C(F)F)n3)nn2)cc1C(F)F [Example 402, 4-(Difluoromethyl)-2-[[1-[3-(difluoromethyl)-4-fluoro-phenyl]triazol-4-yl]methoxy]pyrimidine]	0.051
Fc1ccc(-n2cc(COc3nccc(C(F)(F)F)n3)nn2)cc1C(F)F [Example 403, 2-[[1-[3-(Difluoromethyl)-4-fluoro-phenyl]triazol-4-yl]methoxy]-4-(trifluoromethyl)pyrimidine]	0.199
CNC(=O)c1cnc(OCc2cn(-c3ccc(F)c(C(F)F)c3)nn2)nc1 [Example 409, 2-[[1-[3-(Difluoromethyl)-4-fluoro-phenyl]triazol-4-yl]methoxy]-N-methyl-pyrimidine-5-carboxamide]	0.149
CN(C)C(=O)c1ccnc(OCc2cn(-c3ccc(F)c(C(F)F)c3)nn2)n1 [Example 410, 2-[[1-[3-(Difluoromethyl)-4-fluoro-phenyl]triazol-4-yl]methoxy]-N,N-dimethyl-pyrimidine-4-carboxamide]	> 2.99
COc1nc(OCc2cn(-c3ccc(F)c(C(F)F)c3)nn2)ncc1C [Example 411, 2-[[1-[3-(Difluoromethyl)-4-fluoro-phenyl]triazol-4-yl]methoxy]-4-methoxy-5-methyl-pyrimidine]	0.021
Nc1ccnc(OCc2cn(-c3ccc(F)c(C(F)F)c3)nn2)n1 [Example 412, 2-[[1-[3-(Difluoromethyl)-4-fluoro-phenyl]triazol-4-yl]methoxy]pyrimidin-4-amine]	0.124
CNc1ccnc(OCc2cn(-c3ccc(F)c(C(F)F)c3)nn2)n1 [Example 413, 2-[[1-[3-(Difluoromethyl)-4-fluoro-phenyl]triazol-4-yl]methoxy]-N-methyl-pyrimidin-4-amine]	0.015
CNc1nc(OCc2cn(-c3ccc(F)c(C(F)F)c3)nn2)ncc1F [Example 414, 2-[[1-[3-(Difluoromethyl)-4-fluoro-phenyl]triazol-4-yl]methoxy]-5-fluoro-N-methyl-pyrimidin-4-amine]	0.122
CN(C)c1ccnc(OCc2cn(-c3ccc(F)c(C(F)F)c3)nn2)n1 [Example 415, 2-[[1-[3-(Difluoromethyl)-4-fluoro-phenyl]triazol-4-yl]methoxy]-N,N-dimethyl-pyrimidin-4-amine]	0.008
Fc1ccc(-n2cc(COc3ncc(N4CC(F)C4)cn3)nn2)cc1C(F)F [Example 416, 2-((1-(3-(Difluoromethyl)-4-fluorophenyl)-1H-1,2,3-triazol-4-yl)methoxy)-5-(3-fluoroazetidin-1-yl)pyrimidine]	0.01
Fc1ccc(-n2cc(COc3ncc(N4CCC4)cn3)nn2)cc1C(F)F [Example 417, 5-(Azetidin-1-yl)-2-((1-(3-(difluoromethyl)-4-fluorophenyl)-1H-1,2,3-triazol-4-yl)methoxy)pyrimidine]	0.006
COC1CN(c2cnc(OCc3cn(-c4ccc(F)c(C(F)F)c4)nn3)nc2)C1 [Example 418, 2-((1-(3-(Difluoromethyl)-4-fluorophenyl)-1H-1,2,3-triazol-4-yl)methoxy)-5-(3-methoxyazetidin-1-yl)pyrimidine]	0.271
Fc1ccc(-n2cc(COc3ncc(N4CC(F)(F)C4)cn3)nn2)cc1C(F)F [Example 419, 5-(3,3-Difluoroazetidin-1-yl)-2-((1-(3-(difluoromethyl)-4-fluorophenyl)-1H-1,2,3-triazol-4-yl)methoxy)pyrimidine]	0.029
CC1(F)CN(c2cnc(OCc3cn(-c4ccc(F)c(C(F)F)c4)nn3)nc2)C1 [Example 420, 2-((1-(3-(Difluoromethyl)-4-fluorophenyl)-1H-1,2,3-triazol-4-yl)methoxy)-5-(3-fluoro-3-methylazetidin-1-yl)pyrimidine]	0.26
Fc1ccc(-n2cc(COc3ncc(N4CC(C(F)F)C4)cn3)nn2)cc1C(F)F [Example 421, 2-((1-(3-(Difluoromethyl)-4-fluorophenyl)-1H-1,2,3-triazol-4-yl)methoxy)-5-(3-(difluoromethyl)azetidin-1-yl)pyrimidine]	0.227
Fc1ccc(-n2cc(COc3ncc(N4CCC(F)(F)C4)cn3)nn2)cc1C(F)F [Example 422, 2-((1-(3-(Difluoromethyl)-4-fluorophenyl)-1H-1,2,3-triazol-4-yl)methoxy)-5-(3,3-difluoropyrrolidin-1-yl)pyrimidine]	0.068
Fc1ccc(-n2cc(COc3ncc(C4CC4)cn3)nn2)cc1C(F)F [Example 423, 5-Cyclopropyl-2-[[1-[3-(difluoromethyl)-4-fluoro-phenyl]triazol-4-yl]methoxy]pyrimidine]	0.005

Same assay, conditions: standard assay; human GluN1/GluN2B, calcium flux (FLIPR), glutamate ~EC80

Structure (SMILES)	IC50 [µM]
Nc1nc(OCc2cn(-c3ccc(Cl)c(OC(F)F)c3)nn2)ncc1F [Example 390, 2-((1-(4-Chloro-3-(difluoromethoxy)phenyl)-1H-1,2,3-triazol-4-yl)methoxy)-5-fluoropyrimidin-4-amine]	0.006
FC(F)Oc1cc(-n2cc(COc3ncc(N4CCC4)cn3)nn2)ccc1Cl [Example 391, 5-(Azetidin-1-yl)-2-((1-(4-chloro-3-(difluoromethoxy)phenyl)-1H-1,2,3-triazol-4-yl)methoxy)pyrimidine]	0.022
